Laboratory results from US10329304B2, “Compounds and methods for inhibition of hedgehog signaling and phosphodiesterase” (Vanderbilt University, priority 2014, dated 2019).
“Also recorded” adds a separate entry of the source.

Experiments:
ptch1 expression [1] = test: RT-PCR of ptch1 in NIH3T3 cells stimulated with purmorphamine; type: cell-based; conditions: NIH3T3 fibroblasts
Description: NIH3T3 cells were stimulated with 3 μM purmorphamine in the presence of eggmanone or DMSO for 24-hours. Cells were collected and RNA isolated with RNeasy kit (Qiagen, Valencia, Calif.). After subsequent cDNA amplification using Superscript III (Invitrogen, Carlsbad, Calif.), samples were quantified by comparing Q-PCR cycle thresholds (Ct) for gene expression normalized to GAPDH. The following TaqMan probe and primer sets (Applied Biosystems) were used: GAPDH (Mm99999915_g1), and Patch1 (Mm01306905_mi).

[2] = system: Gli-Luc reporter activity; test: Gli-luciferase reporter under Gli overexpression; type: cell-based
Description: For Hh signaling assays, Shh-Light2 cells stably transfected with Gli-Luciferase reporter construct were used along with Shh-conditioned media, as previously described^7. Alternatively, 3 μM purmorphamine or 20 nM Smoothened agonist (SAG) (Santa Cruz Biotechnology, Santa Cruz, Calif.) was used to induce Hh signaling. Reporter cells were seeded in 96-well plates and incubated overnight with the various concentrations of eggmanone and Shh-conditioned media. To assess the effects of overexpression of Gli-2, PDE4D3 and DN-PDE4D3 on Hh signaling, mammalian expression vectors containing these constructs were transfected into Shh-Light2 cells in 96-well plates using Fugene6 (Roche), according to manufacturer's instructions. The transfected or Shh-stimulated cells were incubated overnight with the various concentrations of compound. The cells were then lysed, and cell extracts were subjected to Steady-Glo luciferase assay (Promega) according to manufacturer's instructions. The results were normalized to cell titer, as determined using Cell Titer-Glo luminescence assay (Promega).

BMP signaling (BRE-luc) = test: BMP4-responsive reporter (BRE-luc) in C2C12BRA cells; type: cell-based; conditions: stimulated with BMP4 ligand
mouse cardiomyocytes = test: Calcium handling in isolated mouse cardiomyocytes; type: cell-based; conditions: 10 μM
Text: To observe whether the effects of eggmanone administration are cardiomyocyte specific or due to off target effects, the contractility of individual mouse cardiomyocytes and the tone of ascending/descending aorta was observed. In mouse cardiomyocytes, Egm caused a 50% increase in contractility over vehicle control (FIG. 32).

ptch1 expression [3] = test: Whole mount zebrafish in situ hybridization for ptch1; type: in vivo; conditions: 2 μM from 4 hpf
Description: In situ hybridization was performed as previously described. Zebrafish ptch1 probes were produced as previously described.

Gli1 transcription = test: Sufu−/− mouse embryonic fibroblasts qRT-PCR; type: cell-based; conditions: Gli1 and Ptch1

Row | Structure (SMILES) | ptch1 expression in response to purmorphamine (ptch1 expression [1]) | Gli-luciferase reporter activity under Gli2 overexpression [2] | BMP4-responsive reporter (BRE-luc) activity (BMP signaling (BRE-luc)) | Calcium handling (mouse cardiomyocytes) | Hh-responsive ptch1 expression in embryos (ptch1 expression [3]) | BMP4-responsive reporter (BRE-luc) activity (BMP signaling (BRE-luc); listed as eggmanone) | Transcriptional inhibition in the Sufu−/− cell line, in words (Gli1 transcription)
1 | C=C(C)Cn1c(SCC(=O)c2cccs2)nc2sc3c(c2c1=O)CCCC3 [EGM, Eggmanone] | significantly inhibited ptch1 expression in response to purmorphamine | had no significant effect on Gli-luciferase reporter activity under Gli2 overexpression conditions | had no significant effects on BMP4-responsive reporter (BRE-luc) activity | not associated with alterations in calcium handling | abolished Hh-responsive ptch1 expression in adaxial cells; also recorded: abolished Hh-responsive ptc1 expression in adaxial cells; also recorded: abolished Hh-responsive ptch1 expression in somites |  | 
2 | C=C(C)Cn1c(SCC(=O)c2cccs2)nc2sc3c(c2c1=O)CCCC3 [Eggmanone, 3-(2-methylallyl)-2-((2-oxo-2-(thiophen-2-yl)ethyl)thio)-5,6,7,8-tetrahydrobenzo[4,5]thieno[2,3-d]pyrimidine-4(3H)-one] | significantly inhibited ptch1 expression in response to purmorphamine | did not block Gli-Luc reporter activity in cells transiently overexpressing Gli2 | did not affect BMP-responsive luciferase reporter activity; also recorded: had no significant effects on BMP4-responsive reporter (BRE-luc) activity |  | abrogated the expression of the Hh target gene patched-1 (ptch1) | did not affect BMP-responsive luciferase reporter activity | 
3 | CCCn1c(SCC(=O)c2cccs2)nc2sc3c(c2c1=O)CCCC3 [Formula 9e] |  |  |  |  |  |  | general ability to inhibit transcriptional activity
4 | C=C(C)Cn1c(SCC(=O)c2ccccc2)nc2sc3c(c2c1=O)CCCC3 [Formula 9g] |  |  |  |  |  |  | general ability to inhibit transcriptional activity
